Experimental data from patent publication US20240091217A1, “STABLE PHARMACEUTICAL ORAL LIQUID FORMULATION OF AN ANTISPASMODIC AGENT” (priority 2022, published 2024).

Tests used:
[1] = cited from earlier work
[2] = Degradation of Drotaverine HCl under stress conditions; format: physicochemical; settings: alkaline medium, higher oxidative stress conditions, presence of light
Excerpt: In some embodiments, the disclosed formulations employ very few excipients, all of which are completely safe for pediatric patients, economical, and readily available.

[3] = Solubilizing Drotaverine HCl in dispersion media of sorbitol liquid, glycerin and water, storage; format: physicochemical; settings: glycerin, water 1:1:1 to 3:2:1, no stabilizing agent
Excerpt: The inventors of the present disclosure tried solubilizing Drotaverine HCl in a ratio of dispersion media containing sorbitol liquid, glycerin, and water ranging from 1:1:1 to 3:2:1, respectively. […] To obtain a physically and chemically stable product with good shelf life, the present inventors resolved this precipitation of Drotaverine in the proposed dispersion media. In order to avoid the precipitation of Drotaverine, the present inventors added a stabilizing agent to the dispersion media.

[4] = cited from earlier work; remark: listed apart in the source

SMILES: CCOc1ccc(C=C2NCCc3cc(OCC)c(OCC)cc32)cc1OCC [Drotaverine, 1-[(3,4-diethoxyphenyl)methylene]-6,7-diethoxy-1,2,3,4-tetrahydroisoquinoline]
- onset of action ([1]; after oral administration of 80 mg strength IR tablets): ≤ 12 min
- renal clearance as share of the total plasma clearance ([1]; humans, Drotaverine IR tablets 80 mg): 0.31+/−0.13%
- Absolute bioavailability (range) ([1]; humans, oral, subject dependent): 24.5-91%
- Absolute bioavailability, mean (mean+/-SD) ([1]; humans, oral): 58.2+/−18.2%
- degradation [2]: degrades extensively
- precipitation on storage [3]: re-precipitated on storage
- oral LD50 [4]: > 1000 mg/Kg body weight
